In patent publication US20230104936A1, “TRPML MODULATORS” (Casma Therapeutics, Inc., priority 2019, published 2023):

Tested on: TFEB
Experiment: TFEB nuclear translocation assay, HeLa wt cells
Type: cell-based
Details: 2 hrs compound treatment, Table 1 does not say HeLa wt or TRPML1 KO
Summary of the method: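 HeLa wt, 2 hr compound, 37° C; 4% PFA fix; anti-TFEB (rabbit, 1:200, overnight 4° C) + Alexa 488 secondary, Hoechst. Imaged ×20, 4 fields/well. Readout: nuclear/ring Alexa 488 intensity ratio; AC50.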

For `CC(c1cccc(F)c1N1CCCCC1)[S+]([O-])c1ccc(S(=O)(=O)C(F)F)cc1` (centres unmarked) [Compound A-972, 1-{2-[1-(4-difluoromethanesulfonylbenzenesulfinyl)ethyl]-6-fluorophenyl}piperidine], which AC50 (Homo sapiens, HeLa, 2 h) is on record?
The AC50 was 2010 to 8000 nM.

Which AC50 (Homo sapiens, HeLa, 2 h) does the source give for `COc1ccc(N2CCOCC2)c(NS(=O)(=O)c2ccc3c(c2)CCC3)c1` [Compound A-521, N-[5-methoxy-2-(morpholin-4-yl)phenyl]-2,3-dihydro-1H-indene-5-sulfonamide] here?
Its AC50 is ≤ 2000 nM.

With `CN1CC2(CCN(c3ccccc3NS(=O)(=O)c3ccc(SC(C)(C)C)cc3)CC2)c2ccc(F)cc21` [Compound A-517, 4-(tert-butylsulfanyl)-N-(2-{6-fluoro-1-methyl-1,2-dihydrospiro[indole-3,4′-piperidin]-1′-yl}phenyl)benzene-1-sulfonamide] as the compound, how does the AC50 (Homo sapiens, HeLa, 2 h) read?
The AC50 was 2010 to 8000 nM.

`CC(c1cccc(F)c1N1CCC(CN2CCC(F)(F)CC2)CC1)S(=O)(=O)c1ccc(S(=O)(=O)N(C)C)cc1` (centres unmarked) [Compound A-804, 4-((1-(2-(4-((4,4-difluoropiperidin-1-yl)methyl)piperidin-1-yl)-3-fluorophenyl)ethyl)sulfonyl)-N,N-dimethylbenzenesulfonamide] was tested. Which AC50 did it give?
The AC50 was ≤ 2000 nM.

Which AC50 (Homo sapiens, HeLa, 2 h) does the source give for `O=C(c1ccc(S(=O)(=O)Nc2ccccc2N2CCC(c3ccc(Cl)cc3F)CC2)cc1)C(F)(F)F` [Compound A-191, N-{2-[4-(4-chloro-2-fluorophenyl)piperidin-1-yl]phenyl}-4-(2,2,2-trifluoroacetyl)benzene-1-sulfonamide] here?
The AC50 was 2010 to 8000 nM.

How did the AC50 (Homo sapiens, HeLa, 2 h) turn out when `O=S(=O)(c1ccc2c(c1)CCC2)N1Cc2cccc(N3CCOCC3)c2C1` [Compound A-819, 2-(2,3-dihydro-1H-indene-5-sulfonyl)-4-(morpholin-4-yl)-2,3-dihydro-1H-isoindole] was run?
Its AC50 is ≥ 10000 nM.

`CC1(C)CC2(CCN(c3ccccc3NS(=O)(=O)c3cnn(C4CCC4)c3)CC2)CO1` [Compound A-666, 1-cyclobutyl-N-(2-{3,3-dimethyl-2-oxa-8-azaspiro[4.5]decan-8-yl}phenyl)-1H-pyrazole-4-sulfonamide] was tested. Which AC50 (Homo sapiens, HeLa, 2 h) did it give?
The AC50 was 2010 to 8000 nM.

How did the AC50 (Homo sapiens, HeLa, 2 h) turn out when `CN1c2ccccc2N(S(=O)(=O)c2ccc(S(=O)(=O)N(C)C)cc2)CC1c1ccc(Cl)cc1F` (centres unmarked) [Compound A-146, 4-{[3-(4-chloro-2-fluorophenyl)-4-methyl-1,2,3,4-tetrahydroquinoxalin-1-yl]sulfonyl}-N,N-dimethylbenzene-1-sulfonamide] was run?
The AC50 was ≤ 2000 nM.

`CN(C)S(=O)(=O)c1ccc(S(=O)(=O)Nc2ccnnc2N2CCC(c3ccc(Cl)cc3F)CC2)cc1` [Compound A-139, N4-{3-[4-(4-chloro-2-fluorophenyl)piperidin-1-yl]pyridazin-4-yl}-N1,N1-dimethylbenzene-1,4-disulfonamide] was tested. Which AC50 (Homo sapiens, HeLa, 2 h) did it give?
The AC50 was ≥ 10000 nM.

`CN1CC2CN(c3ccccc3NS(=O)(=O)c3ccc(S(=O)(=O)N(C)C)cc3)CC2C1` (centres unmarked) [Compound A-58, N1,N1-dimethyl-N4-(2-{5-methyl-octahydropyrrolo[3,4-c]pyrrol-2-yl}phenyl)benzene-1,4-disulfonamide] was tested. Which AC50 (Homo sapiens, HeLa, 2 h) did it give?
Its AC50 is ≥ 10000 nM.

`COCC1(C)CCN(c2ccccc2NS(=O)(=O)c2ccc3c(c2)CCC3)CC1` [Compound A-608, N-{2-[4-(methoxymethyl)-4-methylpiperidin-1-yl]phenyl}-2,3-dihydro-1H-indene-5-sulfonamide] was tested. Which AC50 (Homo sapiens, HeLa, 2 h) did it give?
Its AC50 is ≤ 2000 nM.

How did the AC50 (Homo sapiens, HeLa, 2 h) turn out when `COCC(C)N1CCN(c2ccccc2NS(=O)(=O)c2ccc(S(=O)(=O)N(C)C)cc2)CC1` (centres unmarked) [Compound A-418, N4-{2-[4-(1-methoxypropan-2-yl)piperazin-1-yl]phenyl}-N1,N1-dimethylbenzene-1,4-disulfonamide] was run?
The AC50 was 2010 to 8000 nM.

`CS(=O)(=O)c1ccc(S(=O)(=O)Nc2ccccc2N2CCC3(CC2)COc2cc(F)ccc23)cc1` [Compound A-319, N-(2-{6-fluoro-2H-spiro[1-benzofuran-3,4′-piperidin]-1′-yl}phenyl)-4-methanesulfonylbenzene-1-sulfonamide] was tested. Which AC50 (Homo sapiens, HeLa, 2 h) did it give?
Its AC50 is ≤ 2000 nM.

`Cc1nn(S(=O)(=O)c2ccc(S(=O)(=O)N(C)C)cc2)cc1N1CCN(c2ccc(Cl)cc2F)CC1=O` [Compound A-306, 4-({4-[4-(4-chloro-2-fluorophenyl)-2-oxopiperazin-1-yl]-3-methyl-1H-pyrazol-1-yl}sulfonyl)-N,N-dimethylbenzene-1-sulfonamide] was tested. Which AC50 (Homo sapiens, HeLa, 2 h) did it give?
The AC50 was ≥ 10000 nM.

Which AC50 (Homo sapiens, HeLa, 2 h) does the source give for `COc1ccc(S(=O)(=O)Nc2ccccc2-c2ccc(F)cc2F)cc1` [Compound A-167, N-(2′,4′-difluoro-[1,1′-biphenyl]-2-yl)-4-methoxybenzenesulfonamide] here?
The AC50 was 2010 to 8000 nM.

For `CC(c1cccc(F)c1N1CCC(CN2C[C@H]3C[C@@H](C2)O3)CC1)S(=O)(=O)c1ccc(S(=O)(=O)N(C)C)cc1` (stereo partly drawn) [Compound A-837, 4-{1-[3-fluoro-2-(4-{[(1R,5S)-6-oxa-3-azabicyclo[3.1.1]heptan-3-yl]methyl}piperidin-1-yl)phenyl]ethanesulfonyl}-N,N-dimethylbenzene-1-sulfonamide], which AC50 (Homo sapiens, HeLa, 2 h) is on record?
The AC50 was ≤ 2000 nM.

`CN(C)S(=O)(=O)c1ccc(S(=O)(=O)Nc2ccccc2N2C3CCC2CN(C(=O)C(C)(C)C)C3)cc1` [Compound A-354, N4-{2-[3-(2,2-dimethylpropanoyl)-3,8-diazabicyclo[3.2.1]octan-8-yl]phenyl}-N1,N1-dimethylbenzene-1,4-disulfonamide] was tested. Which AC50 (Homo sapiens, HeLa, 2 h) did it give?
The AC50 was ≥ 10000 nM.

With `CN(C)S(=O)(=O)c1ccc(S(=O)(=O)Nc2cc(F)ccc2N2CCC3(CC2)COC(C)(C)C3)cc1` [Compound A-605, N4-(2-{3,3-dimethyl-2-oxa-8-azaspiro[4.5]decan-8-yl}-5-fluorophenyl)-N1,N1-dimethylbenzene-1,4-disulfonamide] as the compound, how does the AC50 (Homo sapiens, HeLa, 2 h) read?
Its AC50 is ≤ 2000 nM.

How did the AC50 (Homo sapiens, HeLa, 2 h) turn out when `COCC1(C)CCN(c2ccc(OC)cc2NS(=O)(=O)c2ccc3c(c2)CCC3)CC1` [Compound A-630, N-{5-methoxy-2-[4-(methoxymethyl)-4-methylpiperidin-1-yl]phenyl}-2,3-dihydro-1H-indene-5-sulfonamide] was run?
The AC50 was ≤ 2000 nM.

For `CN(C)S(=O)(=O)c1ccc(S(=O)(=O)Nc2ccccc2N2CCC(c3ccccc3F)CC2)cc1` [Compound A-10, N4-{2-[4-(2-fluorophenyl)piperidin-1-yl]phenyl}-N1,N1-dimethylbenzene-1,4-disulfonamide], which AC50 (Homo sapiens, HeLa, 2 h) is on record?
The AC50 was ≤ 2000 nM.

How did the AC50 (Homo sapiens, HeLa, 2 h) turn out when `CC(=O)NC1(C)CCN(c2c(F)cccc2NS(=O)(=O)c2ccc(S(=O)(=O)N(C)C)cc2)CC1` [Compound A-795, N-(1-{2-[4-(dimethylsulfamoyl)benzenesulfonamido]-6-fluorophenyl}-4-methylpiperidin-4-yl)acetamide] was run?
The AC50 was 8010 to 9990 nM.

For `CC(c1cccc(F)c1N1CCC(C)(C(F)F)CC1)S(=O)(=O)c1ccc(C(F)F)cc1` (single isomer, unassigned) [Compound A-963, 4-(difluoromethyl)-1-(2-(1-((4-(difluoromethyl)phenyl)sulfonyl)ethyl)-6-fluorophenyl)-4-methylpiperidine], which AC50 (Homo sapiens, HeLa, 2 h) is on record?
The AC50 was 2010 to 8000 nM.

With `CC(c1cccc(F)c1N1CCC(CN2C3CCC2COC3)CC1)S(=O)(=O)c1ccc(S(=O)(=O)N(C)C)cc1` (centres unmarked) [Compound A-832, 4-((1-(2-(4-((3-oxa-8-azabicyclo[3.2.1]octan-8-yl)methyl)piperidin-1-yl)-3-fluorophenyl)ethyl)sulfonyl)-N,N-dimethylbenzenesulfonamide] as the compound, how does the AC50 (Homo sapiens, HeLa, 2 h) read?
Its AC50 is ≤ 2000 nM.

`N#Cc1ccc(S(=O)(=O)Nc2ccccc2N2CCC(c3ccc(Cl)cc3F)CC2)cc1` [Compound A-101, N-{2-[4-(4-chloro-2-fluorophenyl)piperidin-1-yl]phenyl}-4-cyanobenzene-1-sulfonamide] was tested. Which AC50 (Homo sapiens, HeLa, 2 h) did it give?
Its AC50 is 2010 to 8000 nM.

`CN(C)S(=O)(=O)c1ccc(S(=O)(=O)Nc2nc(C3CCN(c4ccc(Cl)cc4F)CC3)cn2C)cc1` [Compound A-84, N4-{4-[1-(4-chloro-2-fluorophenyl)piperidin-4-yl]-1-methyl-1H-imidazol-2-yl}-N1,N1-dimethylbenzene-1,4-disulfonamide] was tested. Which AC50 (Homo sapiens, HeLa, 2 h) did it give?
Its AC50 is ≥ 10000 nM.

Which AC50 (Homo sapiens, HeLa, 2 h) does the source give for `Cc1nc(C2CCN(c3ccc(Cl)cc3F)CC2)cn1S(=O)(=O)c1ccc(S(=O)(=O)N(C)C)cc1` [Compound A-39, 4-((4-(1-(4-chloro-2-fluorophenyl)piperidin-4-yl)-2-methyl-1H-imidazol-1-yl)sulfonyl)-N,N-dimethylbenzenesulfonamide] here?
The AC50 was 2010 to 8000 nM.

With `CC(C)(C)C(=O)N1CCN(c2ccccc2NS(=O)(=O)c2ccc(SC(F)(F)F)cc2)CC1` [Compound A-574, N-{2-[4-(2,2-dimethylpropanoyl)piperazin-1-yl]phenyl}-4-[(trifluoromethyl)sulfanyl]benzene-1-sulfonamide] as the compound, how does the AC50 (Homo sapiens, HeLa, 2 h) read?
Its AC50 is 2010 to 8000 nM.

How did the AC50 (Homo sapiens, HeLa, 2 h) turn out when `CN(C)S(=O)(=O)c1ccc(S(=O)(=O)n2nc(C3CCN(c4c(F)cccc4F)CC3)c3c2CCCN3)cc1` [Compound A-503, 4-((3-(1-(2,6-difluorophenyl)piperidin-4-yl)-4,5,6,7-tetrahydro-1H-pyrazolo[4,3-b]pyridin-1-yl)sulfonyl)-N,N-dimethylbenzenesulfonamide] was run?
Its AC50 is ≤ 2000 nM.

`Cc1ccc(S(=O)(=O)Nc2cccc(F)c2N2CCC(CN3C4COCC3C4)CC2)cc1` [Compound A-889, N-{3-fluoro-2-[4-({3-oxa-6-azabicyclo[3.1.1]heptan-6-yl}methyl)piperidin-1-yl]phenyl}-4-methylbenzene-1-sulfonamide] was tested. Which AC50 (Homo sapiens, HeLa, 2 h) did it give?
The AC50 was 2010 to 8000 nM.

With `COc1ccc(S(=O)(=O)Nc2ncccc2N2CCN(c3ncc(Cl)cc3F)CC2)cc1` [Compound A-135, N-{3-[4-(5-chloro-3-fluoropyridin-2-yl)piperazin-1-yl]pyridin-2-yl}-4-methoxybenzene-1-sulfonamide] as the compound, how does the AC50 (Homo sapiens, HeLa, 2 h) read?
The AC50 was ≥ 10000 nM.

Which AC50 (Homo sapiens, HeLa, 2 h) does the source give for `COc1cc(S(=O)(=O)Nc2ccccc2N2CCN(c3ccc(Cl)cc3F)CC2)ccn1` [Compound A-34, N-{2-[4-(4-chloro-2-fluorophenyl)piperazin-1-yl]phenyl}-2-methoxypyridine-4-sulfonamide] here?
Its AC50 is ≤ 2000 nM.

Which AC50 (Homo sapiens, HeLa, 2 h) does the source give for `C[C@@H]1CN(CC2CCN(c3c(F)cccc3NS(=O)(=O)c3ccc(S(=O)(=O)N(C)C)cc3)CC2)[C@@H](C)CO1` [Compound A-865, N4-[2-(4-{[(2R,5S)-2,5-dimethylmorpholin-4-yl]methyl}piperidin-1-yl)-3-fluorophenyl]-N1,N1-dimethylbenzene-1,4-disulfonamide] here?
The AC50 was ≤ 2000 nM.
